Experimental data reported in paper PMC6770510, “In Vitro Production and Identification of Angiotensin Converting Enzyme (ACE) Inhibitory Peptides Derived from Distilled Spent Grain Prolamin Isolate” (Foods, 2019).
Residues, ends and D or L forms follow the SMILES beside them.

molecular target: T1, angiotensin converting enzyme (ACE) (Homo sapiens, UniProt P12821); test: ACE inhibitory activity, colorimetric detection system (ACE kit-WST); type: biochemical; conditions: synthetic peptides; mean ± SD, n = 3; read-out: IC50 (μM) for ACE of corresponding synthetic peptides
T1 construct: purchased Dojindo Inc., Kumamoto, Japan ACE kit-WST
T1 sequence (P12821 30-1306, species assumed): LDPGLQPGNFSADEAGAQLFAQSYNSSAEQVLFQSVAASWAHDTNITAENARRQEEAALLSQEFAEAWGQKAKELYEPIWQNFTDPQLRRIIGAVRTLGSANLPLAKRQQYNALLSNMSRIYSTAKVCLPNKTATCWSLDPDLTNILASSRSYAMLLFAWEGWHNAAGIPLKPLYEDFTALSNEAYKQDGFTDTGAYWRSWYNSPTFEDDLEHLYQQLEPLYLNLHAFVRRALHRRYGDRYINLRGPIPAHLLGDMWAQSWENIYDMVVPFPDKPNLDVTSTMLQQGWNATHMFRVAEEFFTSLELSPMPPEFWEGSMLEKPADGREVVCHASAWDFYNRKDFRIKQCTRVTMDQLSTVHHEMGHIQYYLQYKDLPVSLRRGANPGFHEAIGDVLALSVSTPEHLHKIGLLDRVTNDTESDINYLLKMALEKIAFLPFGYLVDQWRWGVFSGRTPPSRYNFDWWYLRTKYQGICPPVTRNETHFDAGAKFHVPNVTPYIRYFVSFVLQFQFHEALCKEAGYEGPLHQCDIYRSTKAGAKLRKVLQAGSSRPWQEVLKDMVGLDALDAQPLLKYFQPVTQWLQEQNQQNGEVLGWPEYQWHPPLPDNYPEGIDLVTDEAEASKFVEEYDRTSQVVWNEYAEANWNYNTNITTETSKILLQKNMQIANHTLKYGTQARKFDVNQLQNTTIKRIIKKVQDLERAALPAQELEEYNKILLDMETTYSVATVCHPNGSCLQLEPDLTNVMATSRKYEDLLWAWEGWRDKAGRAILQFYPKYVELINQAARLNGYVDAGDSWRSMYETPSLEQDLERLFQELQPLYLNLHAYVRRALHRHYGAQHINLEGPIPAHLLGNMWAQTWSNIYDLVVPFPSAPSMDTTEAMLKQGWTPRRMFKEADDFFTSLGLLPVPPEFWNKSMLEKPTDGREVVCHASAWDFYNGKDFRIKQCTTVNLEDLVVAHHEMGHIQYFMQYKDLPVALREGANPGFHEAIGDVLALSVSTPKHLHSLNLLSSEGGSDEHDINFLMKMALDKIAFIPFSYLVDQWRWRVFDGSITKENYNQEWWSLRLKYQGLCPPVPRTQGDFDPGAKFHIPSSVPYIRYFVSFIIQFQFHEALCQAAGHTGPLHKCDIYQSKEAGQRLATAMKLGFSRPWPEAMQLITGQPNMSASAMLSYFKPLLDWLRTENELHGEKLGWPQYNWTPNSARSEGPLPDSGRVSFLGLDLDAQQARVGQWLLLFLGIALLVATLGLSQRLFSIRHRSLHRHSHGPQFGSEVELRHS
Experimental: The ACE inhibitory activity was determined following the method as previously described, using the colorimetric detection system (ACE kit-WST, Dojindo Inc., Kumamoto, Japan). The assay procedure was consistent with the technical manual provided by the assay kit. Briefly, 20 µL of sample solution was added to a sample well, and 20 µL of deionized water was added to blank 1 and blank 2 wells. 20 µL of substrate buffer was added to each well. 20 µL of deionized water was added to blank 2 well, while 20 µL of enzyme working solution was added to each sample and blank 1 wells. All wells containing above solutions were incubated at 37 °C for 1 h. Afterwards, 200 µL of the indicator working solution was added to each well with further incubation for 10 min. Then, the absorbance was recorded at 450 nm using a microplate reader (Cytation 3, BioTek Instruments, Inc., Winooski, VT, USA). The ACE inhibitory activity was calculated using the equation (1) ACE inhibitory activity (inhibition rate %) = Ablank1− Asample/Ablank1− Ablank2 × 100% where Ablank1 represented positive control (without ACE inhibition); Ablank2 was the absorbance of the reagent blank, while Asample was the absorbance of the sample. The concentration inducing 50% inhibition (IC50) of peptides and some samples were also determined with non-linear regression.

Row | Compound | IC50 [µM]
1 | CC(C)C[C@H](NC(=O)[C@@H](NC(=O)[C@@H]1CCCN1C(=O)[C@H](CC(C)C)NC(=O)[C@@H](N)C(C)C)C(C)C)C(=O)N[C@@H](CO)C(=O)O [VLPVLS] (H-VLPVLS-OH) | 248 ± 7.15
2 | CC(C)C[C@H](NC(=O)[C@H](CO)NC(=O)[C@@H]1CCCN1C(=O)[C@H](CC(C)C)NC(=O)[C@@H](N)C(C)C)C(=O)N[C@@H](CC(N)=O)C(=O)O [VLPSLN] (H-VLPSLN-OH) | 1246 ± 9.92
3 | NC(=O)CC[C@H](NC(=O)[C@@H]1CCCN1C(=O)[C@@H](N)Cc1ccc(O)cc1)C(=O)O [YPQ] (H-Tyr-Pro-Gln-OH) | 220 ± 9.56

Further lines, results first:

Row | IC50 [µM] | Compound
4 | 181 ± 6.17 | CC(C)[C@H](NC(=O)[C@H](C)N)C(=O)N[C@@H](CCC(N)=O)C(=O)O [AVQ] (H-Ala-Val-Gln-OH)
5 | 229 ± 9.63 | CC(C)C[C@H](NC(=O)[C@H](Cc1ccc(O)cc1)NC(=O)[C@H](C)N)C(=O)N[C@@H](CCC(N)=O)C(=O)O [AYLQ] (H-AYLQ-OH)
6 | 705 ± 16.1 | CC(C)C[C@H](NC(=O)[C@H](CCC(N)=O)NC(=O)[C@@H](N)CC(N)=O)C(=O)O [NQL] (H-Asn-Gln-Leu-OH)
